In patent publication US12390436B1, “Mutations in mitochondrial enzyme GPT2 cause metabolic dysfunction and neurological disease with developmental and progressive features” (priority 2020, dated 2025):
Entries after “also recorded” stand apart in the source; their conditions may differ.

Columns and labels:
germline Gpt2-null mice = test: Dietary supplementation of germline Gpt2-null mice: survival and phenotype; assay type: in vivo, mouse
Source text: Vertebrate animal assays. The assays use a wild-type mouse line and a genetically modified mouse line (i.e., germline Gpt2-null line). A person having ordinary skill in the biomedical art can perform these assays following the procedures in protocol 18-11-0002, approved by the Brown University Institutional Animal Care and Use Committee (IACUC). All animals used in assays described in this specification were housed at the Brown University Animal Care Facility.
Rescue of motor phenotype in vivo with dietary modifications. Synthesis of alanine in the brain is prominently deficient in Gpt2-null animals. An overriding hypothesis (OH1) is that, in the absence of GPT2, alanine changes from a non-essential amino acid to an essential amino acid in neurons, and neuronal alanine deficiency impedes protein synthesis and neuronal growth. The inventors determined there is an anaplerotic defect in Gpt2-null brains (OH2). The inventors are attempting to rescue animal survival, weight gain, and health of the motor system by alanine supplementation, anaplerotic supplementation, and the combination. […] The inventors are testing the extent to which other phenotypic aspects, particularly related to motor defects, are ameliorated by alanine supplementation over time with and without anaplerotic supplementation. The inventors also investigate the requirement for exogenous dietary alanine by removing alanine from the diet of Gpt2-null animals.
Alanine supplementation: Littermate germline Gpt2-null and wild-type animals are fed either high-alanine diet (5% by weight), alanine-deprived diet (0%), or standard chow (1.2%). The formulations generated by Envigo are fed to breeding pairs, pregnant mothers, and pups, based on prior studies by Battaglia & Regnault, Placenta, 22, 145-161 (2001). Food is provided ad libitum. Therefore, newborn Gpt2-mutant pups are receiving the diet throughout gestation and from birth onward. […] The inventors measured alanine in peripheral blood and brain tissue by metabolomics. […]

[1] = in vivo; cited from earlier work
[2] = preclinical studies (Willis et al. 2010; Hadera et al. 2014); cited from earlier work
[3] = clinical trials, e.g., NCT01379625 and NCT01993186 (Vockley et al. 2017); cited from earlier work

Row | Structure (SMILES) | effect on survival of germline Gpt2-null animals (in words) (germline Gpt2-null mice; alanine supplementation / high-alanine diet, preliminary work) | effect on phenotype in the mouse model of Gpt2 disease (in words) (germline Gpt2-null mice; dietary supplementation in development, preliminary data) | survival of germline Gpt2-null pups beyond weaning (germline Gpt2-null mice; supplemental dietary alanine to pregnant and lactating mothers and pups, freely feeding, vs. 0% on standard chow, p<0.0001, log-rank (Mantel-Cox) test) [%] | crosses the blood-brain barrier [1] | antiseizure effects [2] | tolerability [3]
1 | C[C@H](N)C(=O)O [alanine] | impact; also recorded: improves the survival | benefited; also recorded: partially ameliorates the phenotype | 36.7 | crosses the blood-brain barrier | – | –
2 | CCCCCCC(=O)OCC(COC(=O)CCCCCC)OC(=O)CCCCCC [triheptanoin, reference compound] | – | – | – | – | has antiseizure effects | well tolerated
